Experiments:
[1] = test system: PDGF-BB-stimulated mitogenesis of bovine smooth muscle cells; experiment: Smooth muscle cell mitogenesis test; type: cell-based
Procedure: The procedure for the Smooth Muscle Cell Mitogenesis test is given just below. The fibronectin adhesion inhibitor, compound B, was tested for inhibitory effects on PDGF (Platelet Derived Growth Factor) BB-stimulated mitogenesis of bovine smooth muscle cells. Cells were exposed to PDGF with and without compound B in 24-well plates for 16 hours.

[2] = test system: PDGF receptor; experiment: PDGF receptor binding assay
[3] = test system: methamphetamine toxicity; experiment: Methamphetamine toxicity test in mice; type: in vivo; settings: Mus musculus, read-out: METHA ED50
Procedure: The methamphetamine toxicity test in mice was carried out as described in Burn et al, Arch. Int. Pharmacodyn 113:290-295, (1958); and Coscia et al, Arzneim-Forsch (Drug Research) 25:1436-1442, (1975); which are hereby incorporated by reference.
The results for this test are given below as ED50's in the units of mg/kg.
METHA refers to the methamphetamine toxicity test in mice;

[4] = test system: B16-F10 murine melanoma metastasis; experiment: In vivo experimental metastasis; set-up: species or system mouse (C57/black6); settings: 150 mpk i.p.
Procedure: C57/black6 female mice (6-7 weeks old) were randomized before any treatment into groups of 5 mice per treatment. Compounds of the invention were prepared as a fine suspension in 25% β-cyclodextran and administered i.p. in a volume of 0.2 ml per animal. Two hours after drug (or vehicle) injection, 0.2 ml of DPBS containing 1×10^5 B-16 F10 murine melanoma cells were injected i.v. into the tail vein. After 14 days, animals were sacrificed and lungs were removed. Metastatic lung colonies were counted by visual inspection.
*Pretreatment Time is the time between i.p. drug injection and i.v. tumor

[5] = test system: pulmonary resistance; experiment: Pulmonary Resistance in the Anesthetized Rat; type: in vivo; settings: 0.5 mpk, i.v.; mean of 5 animals; % decrease in pre-drug baseline resistance
Outline: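 Dialurethane-anesthetized rats (400-500 g) with tracheal and esophageal catheters; air flow and tracheal/esophageal pressures used to derive pulmonary resistance. Compounds given i.v. to 5 animals each; values are mean % decrease from pre-drug baseline resistance.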

Compound | 3H-Thymidine Incorporation (dpm/1000 ± S.E.M.) ([1]; 0.1 μM + 1 ng/ml PDGF-BB) | 3H-Thymidine Incorporation (dpm/1000 ± S.E.M.) ([1]; 0.3 μM + 1 ng/ml PDGF-BB) | 3H-Thymidine Incorporation (dpm/1000 ± S.E.M.) ([1]; 1 μM + 1 ng/ml PDGF-BB) | 3H-Thymidine Incorporation (dpm/1000 ± S.E.M.) ([1]; 3 μM + 1 ng/ml PDGF-BB) | cell detachment ([1]; 10 μM) | 3H-Thymidine Incorporation (dpm/1000 ± S.E.M.) ([1]; 10 μM + 1 ng/ml PDGF-BB) | inhibition at 0.1 µM ([1]; Bos taurus, 0.1 μM + 1 ng/ml PDGF-BB) | inhibition at 0.3 µM ([1]; Bos taurus, 0.3 μM + 1 ng/ml PDGF-BB) | inhibition at 1 µM ([1]; Bos taurus, 1 μM + 1 ng/ml PDGF-BB) | inhibition at 3 µM ([1]; Bos taurus, 3 μM + 1 ng/ml PDGF-BB) | inhibition at 10 µM ([1]; Bos taurus, 10 μM + 1 ng/ml PDGF-BB) | IC50 ([1]; Bos taurus, 16 hours, read-out: inhibition of PDGF-stimulated mitogenesis IC50) | inhibition of PDGF binding [2] | ED50 [3] | inhibition of in vivo metastasis relative to vehicle control ([4]; 2 hours before i.v. injection of melanoma) | % Inhibition of lung metastasis ([4]; pretreatment time 30 min) | Number of Lung Melanoma Colonies ([4]; pretreatment time 30 min) | % Inhibition of lung metastasis ([4]; pretreatment time 120 min) | Number of Lung Melanoma Colonies ([4]; pretreatment time 120 min) | Pulmonary Resistance in Rats, % Inhibition [5]
COc1ccc(C2=C3CC4CCC(N4)C3c3ccccc32)cc1 (centres unmarked) [Compound B] | 406.8 ± 30.2 dpm/1000 | 347.7 ± 9.8 dpm/1000 | 156.3 ± 7.2 dpm/1000 | 17.0 ± 1.9 dpm/1000 | caused cells to detach from the plate | 7.3 ± 5.3 dpm/1000 | -2.7% | 18.5% | 87.1% | 137% | 140% | 520 nM | not to inhibit PDGF binding directly | > 30 mg/kg | 73% | 55.7% | 35.2 ± 13.9 | 72.5% | 21.8 ± 2.0 | 
Cc1ccc(C2=C3CC4CCC(C3c3ccccc32)N4C)cc1 (centres unmarked) [J] |  |  |  |  |  |  |  |  |  |  |  |  |  |  |  |  |  |  |  | 35%

Reference: patent US5461057A, “Hydro-ethano-indeno-pyridines” (priority 1994, dated 1995)
